Laboratory results published in patent publication US10124004B2, “Pyrido[3,4-d]pyrimidine derivative and pharmaceutically acceptable salt thereof” (Teijin Pharma Limited, priority 2015, dated 2018).

Key:
CDK4/cyclin D3 = target: T1, CDK4/cyclin D3 (Homo sapiens, UniProt P11802); experiment: Human CDK4/cyclin D3 inhibitory activity (QS S Assist CDK4/Cyclin D3_FP Kit, IMAP fluorescence polarization); assay type: biochemical; conditions: 50% inhibitory concentration against CDK4/cyclin D3, given as class symbol
T1 construct: purchased Carna Biosciences, Inc. QS S Assist CDK4/Cyclin D3_FP Kit
T1 sequence (P11802 whole entry): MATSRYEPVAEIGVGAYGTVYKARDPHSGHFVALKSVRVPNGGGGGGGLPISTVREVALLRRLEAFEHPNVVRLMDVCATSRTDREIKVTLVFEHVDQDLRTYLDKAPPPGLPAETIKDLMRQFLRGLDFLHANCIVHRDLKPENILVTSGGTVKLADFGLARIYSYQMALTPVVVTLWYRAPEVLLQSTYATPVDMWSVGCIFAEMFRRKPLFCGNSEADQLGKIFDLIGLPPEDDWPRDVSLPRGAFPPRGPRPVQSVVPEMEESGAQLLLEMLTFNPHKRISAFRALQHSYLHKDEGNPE
T1 sequence (P30281 whole entry partner): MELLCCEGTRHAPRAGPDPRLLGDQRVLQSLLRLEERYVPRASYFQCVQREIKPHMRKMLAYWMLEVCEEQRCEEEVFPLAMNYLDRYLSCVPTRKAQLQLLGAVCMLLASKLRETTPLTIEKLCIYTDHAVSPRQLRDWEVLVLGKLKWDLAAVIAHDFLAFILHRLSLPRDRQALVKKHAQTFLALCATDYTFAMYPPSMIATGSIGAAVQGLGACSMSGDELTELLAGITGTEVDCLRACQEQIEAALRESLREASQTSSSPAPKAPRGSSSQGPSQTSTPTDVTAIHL
In short: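 IMAP fluorescence polarization kit: CDK4/cyclin D3 at 12.5-25 ng/well with kit ATP/substrate/metal mix in 20 mM HEPES pH 7.4, 0.01% Tween20, 2 mM DTT, 45 min at room temperature. FP read at 485/535 nm after 30 min binding; IC50 from dose-response fit of percent inhibition versus enzyme and no-enzyme controls.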

CDK2/cyclin A2 = target: T2, CDK2/cyclin A2 (Homo sapiens, UniProt P24941); experiment: Human CDK2/cyclin A2 inhibitory activity (QS S Assist CDK2/Cyclin A2_FP Kit, IMAP fluorescence polarization); assay type: biochemical; conditions: 50% inhibitory concentration against CDK2/cyclin A2, given as class symbol
T2 construct: purchased Carna Biosciences, Inc. QS S Assist CDK2/Cyclin A2_FP Kit
In short: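 Kinase activity read as fluorescence polarization (485/535 nm) after phosphorylated fluorescent substrate binds IMAP reagent (30 min, RT, dark). Enzyme (2.5 ng/well) reacted 60 min at RT with ATP/substrate/metal in HEPES pH 7.4 buffer with Tween 20 and DTT; no-enzyme wells define 0% activity; IC50 by curve fit.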

Structure (SMILES): C[C@@H](O)c1cc2cnc(Nc3ccc(N4CCNCC4=O)cn3)nc2c(NC2CCC(C)(C)CC2)n1 [Compound 658]
- IC50 (CDK4/cyclin D3): < 10 nM
- IC50 (CDK2/cyclin A2): ≥ 100 nM

Structure (SMILES): CC(C)Nc1nc([C@@H](C)O)cc2cnc(Nc3ccc(N4CCN(C(=O)CO)CC4)nn3)nc12 [Compound 659]
- IC50 (CDK4/cyclin D3): < 10 nM
- IC50 (CDK2/cyclin A2): ≥ 100 nM

Structure (SMILES): CC(C)Nc1nc([C@@H](C)O)cc2cnc(Nc3ccc(N4CCC(CO)CC4)nn3)nc12 [Compound 660]
- IC50 (CDK4/cyclin D3): < 10 nM
- IC50 (CDK2/cyclin A2): ≥ 100 nM

Structure (SMILES): CC(C)Nc1nc([C@@H](C)O)cc2cnc(Nc3ccc(N4CC[C@@H](O)C4)nn3)nc12 [Compound 661]
- IC50 (CDK4/cyclin D3): < 10 nM
- IC50 (CDK2/cyclin A2): ≥ 100 nM

Structure (SMILES): CC(C)Nc1nc([C@@H](C)O)cc2cnc(Nc3ccc(N4CC[C@H](O)C4)nn3)nc12 [Compound 662]
- IC50 (CDK4/cyclin D3): < 10 nM
- IC50 (CDK2/cyclin A2): ≥ 100 nM

Structure (SMILES): CC(C)Nc1nc([C@@H](C)O)cc2cnc(Nc3ccc(N4CCC(CO)C4)nn3)nc12 (stereo partly drawn) [Compound 663]
- IC50 (CDK4/cyclin D3): < 10 nM
- IC50 (CDK2/cyclin A2): ≥ 100 nM

Structure (SMILES): CC(C)Nc1nc([C@@H](C)O)cc2cnc(Nc3ccc(N4CCC(O)C(C)(C)C4)nn3)nc12 (stereo partly drawn) [Compound 664]
- IC50 (CDK4/cyclin D3): < 10 nM
- IC50 (CDK2/cyclin A2): ≥ 100 nM

Structure (SMILES): CC(C)Nc1nc([C@@H](C)O)cc2cnc(Nc3ccc(N4CCNCC(C)C4=O)cn3)nc12 (stereo partly drawn) [Compound 665]
- IC50 (CDK4/cyclin D3): < 10 nM
- IC50 (CDK2/cyclin A2): ≥ 100 nM

Structure (SMILES): CC(C)Nc1nc([C@@H](C)O)cc2cnc(Nc3ccc(N4CC(O)C4)nn3)nc12 [Compound 666]
- IC50 (CDK4/cyclin D3): < 10 nM
- IC50 (CDK2/cyclin A2): ≥ 100 nM

Structure (SMILES): CC(C)Nc1nc([C@@H](C)O)cc2cnc(Nc3ccc(N4CC(CO)C4)nn3)nc12 [Compound 667]
- IC50 (CDK4/cyclin D3): < 10 nM
- IC50 (CDK2/cyclin A2): ≥ 100 nM

Structure (SMILES): CC(C)Nc1nc([C@@H](C)O)cc2cnc(Nc3ccc(N4CC(C)(CO)C4)nn3)nc12 [Compound 668]
- IC50 (CDK4/cyclin D3): < 10 nM
- IC50 (CDK2/cyclin A2): ≥ 100 nM

Structure (SMILES): CC(C)Nc1nc([C@@H](C)O)cc2cnc(Nc3ccc(CC(=O)N4CCNC5(CC5)C4)cn3)nc12 [Compound 669]
- IC50 (CDK4/cyclin D3): 10 to 100 nM
- IC50 (CDK2/cyclin A2): ≥ 100 nM

Structure (SMILES): CC(C)Nc1nc(C2CCCO2)cc2cnc(Nc3ccc(N4CCNCC4=O)cn3)nc12 (stereo not drawn) [Compound 670]
- IC50 (CDK4/cyclin D3): ≥ 100 nM
- IC50 (CDK2/cyclin A2): ≥ 100 nM

Structure (SMILES): CC(C)Nc1nc(C(C)O)cc2cnc(Nc3ccc(OC4CNCC4F)cn3)nc12 (stereo not drawn) [Compound 673]
- IC50 (CDK4/cyclin D3): < 10 nM
- IC50 (CDK2/cyclin A2): ≥ 100 nM

Structure (SMILES): CC(C)Nc1nc([C@@H](C)O)cc2cnc(Nc3ccc(CN4CCN(C[C@H](C)O)CC4)cn3)nc12 [Compound 674]
- IC50 (CDK4/cyclin D3): < 10 nM
- IC50 (CDK2/cyclin A2): ≥ 100 nM

Structure (SMILES): CC(C)Nc1nc([C@@H](C)O)cc2cnc(Nc3ccc(CN4CCN(C[C@@H](C)O)CC4)cn3)nc12 [Compound 675]
- IC50 (CDK4/cyclin D3): < 10 nM
- IC50 (CDK2/cyclin A2): ≥ 100 nM

Structure (SMILES): CC(C)Nc1nc([C@@H](C)O)cc2cnc(Nc3ccc(N4CCN(C[C@H](C)O)CC4)nn3)nc12 [Compound 676, (S)-1-(4-(6-((6-((R)-1-hydroxyethyl)-8-(isopropylamino)pyrido[3,4-d]pyrimidin-2-yl)amino)pyridazin-3-yl)piperazin-1-yl)propan-2-ol]
- IC50 (CDK4/cyclin D3): < 10 nM
- IC50 (CDK2/cyclin A2): ≥ 100 nM

Structure (SMILES): CC(C)Nc1nc([C@@H](C)O)cc2cnc(Nc3ccc(N4CCN(C[C@@H](C)O)CC4)nn3)nc12 [Compound 677]
- IC50 (CDK4/cyclin D3): < 10 nM
- IC50 (CDK2/cyclin A2): ≥ 100 nM

Structure (SMILES): CO[C@H](C)c1cc2cnc(Nc3ccc(N4CCN(C(C)(C)C(=O)O)CC4)nn3)nc2c(NC(C)C)n1 [Compound 678, (R)-2-(4-(6-((8-(isopropylamino)-6-(1-methoxyethyl)pyrido[3,4-d]pyrimidin-2-yl)amino)pyridazin-3-yl)piperazin-1-yl)-2-methylpropanoic acid]
- IC50 (CDK4/cyclin D3): 10 to 100 nM
- IC50 (CDK2/cyclin A2): ≥ 100 nM

Structure (SMILES): CO[C@H](C)c1cc2cnc(Nc3ccc(CN4CCN(C(C)(C)C(=O)O)CC4)cn3)nc2c(NC(C)C)n1 [Compound 679]
- IC50 (CDK4/cyclin D3): 10 to 100 nM
- IC50 (CDK2/cyclin A2): ≥ 100 nM

Structure (SMILES): CO[C@H](C)c1cc2cnc(Nc3ccc(N4CCN(C5COC5)CC4)nn3)nc2c(NC(C)C)n1 [Compound 680]
- IC50 (CDK4/cyclin D3): 10 to 100 nM
- IC50 (CDK2/cyclin A2): ≥ 100 nM

Structure (SMILES): CO[C@H](C)c1cc2cnc(Nc3ccc(CN4CCN(C5COC5)CC4)cn3)nc2c(NC(C)C)n1 [Compound 681]
- IC50 (CDK4/cyclin D3): 10 to 100 nM
- IC50 (CDK2/cyclin A2): ≥ 100 nM

Structure (SMILES): CC(C)Nc1nc([C@@H](C)O)cc2cnc(Nc3ccc(N4CCN(C5COC5)CC4)nn3)nc12 [Compound 682, (R)-1-(8-(isopropylamino)-2-((6-(4-(oxetan-3-yl)piperazin-1-yl)pyridazin-3-yl)amino)pyrido[3,4-d]pyrimidin-6-yl)ethanol]
- IC50 (CDK4/cyclin D3): < 10 nM
- IC50 (CDK2/cyclin A2): ≥ 100 nM

Structure (SMILES): CC(C)Nc1nc([C@@H](C)O)cc2cnc(Nc3ccc(CN4CCN(C5COC5)CC4)cn3)nc12 [Compound 683]
- IC50 (CDK4/cyclin D3): < 10 nM
- IC50 (CDK2/cyclin A2): ≥ 100 nM

Structure (SMILES): CC(C)Nc1nc([C@@H](C)O)cc2cnc(Nc3ccc(C4CCCNC(C)C4=O)cn3)nc12 (stereo partly drawn) [Compound 686]
- IC50 (CDK4/cyclin D3): < 10 nM
- IC50 (CDK2/cyclin A2): ≥ 100 nM

Structure (SMILES): C[C@@H](O)c1cc2cnc(Nc3ccc(N4CCNCC4=O)cn3)nc2c(NCC2CCCOC2)n1 (stereo partly drawn) [Compound 691]
- IC50 (CDK4/cyclin D3): < 10 nM
- IC50 (CDK2/cyclin A2): ≥ 100 nM

Structure (SMILES): C[C@@H](O)c1cc2cnc(Nc3ccc(N4CCNCC4=O)cn3)nc2c(NC2CCOC(C)(C)C2)n1 (stereo partly drawn) [Compound 692]
- IC50 (CDK4/cyclin D3): < 10 nM
- IC50 (CDK2/cyclin A2): ≥ 100 nM
